Measured values: patent US6737383B1, “Herbicidal oxadiazolidines” (priority 1999, dated 2004)

Tests used:
bedstraw = test: Test B pre/postemergence bedstraw; assay type: in vivo, Galium aparine
Outline: (§1)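 Herbicidal effect was estimated by eye on a ten-point control scale after plants spent twelve to sixteen days in a greenhouse following soil or foliar treatment. Foliar sprays targeted plants at one to four leaves; all doses were formulated in a non-phytotoxic solvent with surfactant.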

blackgrass = test: Test B pre/postemergence blackgrass; assay type: in vivo, Alopecurus myosuroides
Outline: as §1

surinam grass = test: Test B pre/postemergence surinam grass; assay type: in vivo, Brachiaria decumbens
Outline: as §1

cocklebur = test: Test B pre/postemergence cocklebur; assay type: in vivo, Xanthium strumarium
Outline: as §1

corn = test: Test B pre/postemergence corn; assay type: in vivo, Zea mays
Outline: as §1

crabgrass = test: Test B pre/postemergence crabgrass; assay type: in vivo, Digitaria sanguinalis
Outline: as §1

giant foxtail = test: Test B pre/postemergence giant foxtail; assay type: in vivo, Setaria faberii
Outline: as §1

rape = test: Test B pre/postemergence rape; assay type: in vivo, Brassica napus
Outline: as §1

soybean = test: Test B pre/postemergence soybean; assay type: in vivo, Glycine max
Outline: as §1

sugar beet = test: Test B pre/postemergence sugar beet; assay type: in vivo, Beta vulgaris
Outline: as §1

velvetleaf = test: Test B pre/postemergence velvetleaf; assay type: in vivo, Abutilon theophrasti
Outline: as §1

wheat = test: Test B pre/postemergence wheat; assay type: in vivo, Triticum aestivum
Outline: as §1

purple nutsedge = test: Test B pre/postemergence purple nutsedge; assay type: in vivo, Cyperus rotundus
Outline: as §1

rice = test: Test B flood test rice; assay type: in vivo, Oryza sativa
Outline: (§2)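 Each value is a visual injury score relative to controls, with 10 meaning complete control and 0 no effect. Evaluation took place twelve to sixteen days after the 2-leaf-stage plants were treated and kept in the greenhouse.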

smallflower flatsedge = test: Test B flood test smallflower flatsedge; assay type: in vivo, Cyperus difformis
Outline: as §2

duck salad = test: Test B flood test duck salad; assay type: in vivo, Heteranthera limosa
Outline: as §2

bamyardgrass = test: Test B flood test barnyardgrass; assay type: in vivo, Echinochloa crus-galli
Outline: as §2

[1] = Preemergence, Rate 62 g/ha, scale of 0 to 10 where 0 is no effect and 10 is complete control
[2] = Preemergence, Rate 250 g/ha, scale of 0 to 10 where 0 is no effect and 10 is complete control
[3] = Preemergence, Rate 500 g/ha, scale of 0 to 10 where 0 is no effect and 10 is complete control
[4] = Rate 62 g/ha, Postemergence, scale of 0 to 10 where 0 is no effect and 10 is complete control
[5] = Rate 125 g/ha, Postemergence, scale 0 to 10
[6] = Rate 125 g/ha, Preemergence, scale of 0 to 10 where 0 is no effect and 10 is complete control
[7] = Rate 500 g/ha, Postemergence, scale 0 to 10, 0 no effect, 10 complete control
[8] = Rate 62 g/ha, headed Pre-emergence (flood test species), scale 0 to 10 (0 no effect, 10 complete control)
[9] = Rate 125 g/ha, Pre-emergence, flood test species, scale 0 to 10 where 0 is no effect and 10 is complete control
[10] = Rate 250 g/ha, Pre-emergence, flood-test species, scale 0 to 10, 0 is no effect, 10 is complete control
[11] = Rate 500 g/ha, Pre-emergence, flood test species, scale 0 to 10 (0 no effect, 10 complete control)

## CC(C)N(C(=O)n1oc(=O)n(CC(C)(C)C)c1=O)c1ccc(F)cc1 [Compound 246]
bedstraw; [1]
  Bedstraw plant response rating: 0
bedstraw; [2]
  Bedstraw plant response rating: 0
bedstraw; [3]
  Plant response rating, Bedstraw: 2
bedstraw; [4]
  Bedstraw plant response rating: 7
bedstraw; [5]
  Bedstraw plant response rating: 7
bedstraw; [6]
  Bedstraw plant response rating: 0
bedstraw; Rate 250 g/ha, Postemergence
  Plant response rating (0 to 10; 0 is no effect, 10 is complete control), Bedstraw: 9
bedstraw; [7]
  Bedstraw plant response rating: 9
blackgrass; [2]
  Blackgrass plant response rating: 6
blackgrass; [3]
  Plant response rating, Blackgrass: 10
blackgrass; [4]
  Blackgrass plant response rating: 0
blackgrass; [5]
  Blackgrass plant response rating: 2
blackgrass; [6]
  Blackgrass plant response rating: 5
blackgrass; Rate 250 g/ha, Postemergence
  Plant response rating (0 to 10; 0 is no effect, 10 is complete control), Blackgrass: 6
blackgrass; [7]
  Blackgrass plant response rating: 8
Surinam grass; [1]
  B. signalgrass plant response rating: 0
Surinam grass; [2]
  B. signalgrass plant response rating: 3
Surinam grass; [3]
  Plant response rating, B. signalgrass: 5
Surinam grass; [4]
  B. signalgrass plant response rating: 0
Surinam grass; Rate 125 g/ha, Postemergence, scale 0 (no effect) to 10 (complete control)
  B. signalgrass plant response rating: 0
Surinam grass; [6]
  B. signalgrass plant response rating: 2
Surinam grass; Rate 250 g/ha, Postemergence
  Plant response rating (0 to 10; 0 is no effect, 10 is complete control), B. signalgrass: 0
Surinam grass; [7]
  B. signalgrass plant response rating: 1
cocklebur; [1]
  Cocklebur plant response rating: 0
cocklebur; [2]
  Cocklebur plant response rating: 0
cocklebur; [3]
  Plant response rating, Cocklebur: 0
cocklebur; [4]
  Cocklebur plant response rating: 0
cocklebur; [5]
  Cocklebur plant response rating: 0
cocklebur; [6]
  Cocklebur plant response rating: 0
cocklebur; Rate 250 g/ha, Postemergence
  Plant response rating (0 to 10; 0 is no effect, 10 is complete control), Cocklebur: 1
cocklebur; [7]
  Cocklebur plant response rating: 2
corn; [1]
  Corn plant response rating: 0
corn; [2]
  Corn plant response rating: 0
corn; [3]
  Plant response rating, Corn: 3
corn; [4]
  Corn plant response rating: 0
corn; [5]
  Corn plant response rating: 0
corn; [6]
  Corn plant response rating: 0
corn; Rate 250 g/ha, Postemergence
  Plant response rating (0 to 10; 0 is no effect, 10 is complete control), Corn: 0
corn; [7]
  Corn plant response rating: 0
crabgrass; [1]
  Crabgrass plant response rating: 3
crabgrass; [2]
  Crabgrass plant response rating: 10
crabgrass; [3]
  Plant response rating, Crabgrass: 10
crabgrass; [6]
  Crabgrass plant response rating: 3
crabgrass; Rate 250 g/ha, Postemergence
  Plant response rating (0 to 10; 0 is no effect, 10 is complete control), Crabgrass: 0
crabgrass; [7]
  Crabgrass plant response rating: 3
Giant foxtail; [1]
  Giant foxtail plant response rating: 8
Giant foxtail; [2]
  Giant foxtail plant response rating: 10
Giant foxtail; [3]
  Plant response rating, Giant foxtail: 10
Giant foxtail; [6]
  Giant foxtail plant response rating: 9
Giant foxtail; Rate 250 g/ha, Postemergence
  Plant response rating (0 to 10; 0 is no effect, 10 is complete control), Giant foxtail: 5
Giant foxtail; [7]
  Giant foxtail plant response rating: 8
rape; [1]
  Rape plant response rating: 0
rape; [2]
  Rape plant response rating: 10
rape; [3]
  Plant response rating, Rape: 10
rape; [6]
  Rape plant response rating: 2
rape; Rate 250 g/ha, Postemergence
  Plant response rating (0 to 10; 0 is no effect, 10 is complete control), Rape: 0
rape; [7]
  Rape plant response rating: 0
soybean; [1]
  Soybean plant response rating: 0
soybean; [2]
  Soybean plant response rating: 0
soybean; [3]
  Plant response rating, Soybean: 2
soybean; [6]
  Soybean plant response rating: 0
soybean; [7]
  Soybean plant response rating: 4
Sugar beet; [1]
  Sugarbeets plant response rating: 0
Sugar beet; [2]
  Sugarbeets plant response rating: 2
Sugar beet; [3]
  Plant response rating, Sugarbeets: 8
Sugar beet; [6]
  Sugarbeets plant response rating: 1
Sugar beet; [7]
  Sugarbeets plant response rating: 0
velvetleaf; [1]
  Velvetleaf plant response rating: 0
velvetleaf; [2]
  Velvetleaf plant response rating: 4
velvetleaf; [3]
  Plant response rating, Velvetleaf: 5
velvetleaf; [6]
  Velvetleaf plant response rating: 2
velvetleaf; [7]
  Velvetleaf plant response rating: 3
wheat; [1]
  Wheat plant response rating: 0
wheat; [2]
  Wheat plant response rating: 0
wheat; [3]
  Plant response rating, Wheat: 5
wheat; [6]
  Wheat plant response rating: 0
wheat; [7]
  Wheat plant response rating: 4
Purple nutsedge; [2]
  Nutsedge plant response rating: 0
Purple nutsedge; [3]
  Plant response rating, Nutsedge: 0
Purple nutsedge; Rate 250 g/ha, Postemergence
  Plant response rating (0 to 10; 0 is no effect, 10 is complete control), Nutsedge: 0
Purple nutsedge; [7]
  Nutsedge plant response rating: 3
rice; [8]
  Rice plant response rating: 0
rice; [9]
  Rice plant response rating: 0
rice; [10]
  Rice plant response rating: 0
rice; [11]
  Rice plant response rating: 0
Smallflower flatsedge; [8]
  S. Flatsedge plant response rating: 0
Smallflower flatsedge; [9]
  S. Flatsedge plant response rating: 0
Smallflower flatsedge; [10]
  S. Flatsedge plant response rating: 0
Smallflower flatsedge; [11]
  S. Flatsedge plant response rating: 0
Duck salad; [8]
  Ducksalad plant response rating: 0
Duck salad; [9]
  Ducksalad plant response rating: 0
Duck salad; [10]
  Ducksalad plant response rating: 0
Duck salad; [11]
  Ducksalad plant response rating: 0
bamyardgrass; [8]
  Barnyardgrass plant response rating: 0
bamyardgrass; [9]
  Barnyardgrass plant response rating: 0
bamyardgrass; [10]
  Barnyardgrass plant response rating: 0
bamyardgrass; [11]
  Barnyardgrass plant response rating: 8
